Data from patent US20060030608A1, “Anti aromatase compounds pharmaceutical compositions and uses thereof” (Boehringer Ingelheim Pharmaceuticals, Inc., priority 2004, published 2006).

Target: T1, recombinant human aromatase (CYP19) (Homo sapiens, UniProt P11511)
T1 construct: purchased GENTEST 456260; host or cells: baculovirus/insect cells
T1 sequence (P11511 1-503): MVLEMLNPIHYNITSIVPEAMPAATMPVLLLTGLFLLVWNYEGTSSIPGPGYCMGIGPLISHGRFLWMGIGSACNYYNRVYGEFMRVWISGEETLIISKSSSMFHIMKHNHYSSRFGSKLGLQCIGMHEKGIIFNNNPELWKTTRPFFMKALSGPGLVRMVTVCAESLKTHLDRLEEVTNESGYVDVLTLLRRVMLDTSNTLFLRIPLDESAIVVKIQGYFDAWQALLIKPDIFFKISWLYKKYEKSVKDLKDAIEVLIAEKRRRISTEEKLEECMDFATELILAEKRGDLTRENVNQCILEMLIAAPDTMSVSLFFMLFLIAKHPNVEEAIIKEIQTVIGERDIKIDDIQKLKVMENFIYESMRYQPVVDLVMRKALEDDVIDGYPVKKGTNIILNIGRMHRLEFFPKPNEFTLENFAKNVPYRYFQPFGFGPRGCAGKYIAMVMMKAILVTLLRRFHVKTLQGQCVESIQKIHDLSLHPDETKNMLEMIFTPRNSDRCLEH
Assay: aromatase (CYP19) inhibition assay, fluorometric substrate dibenzylfluorescein (DBF)
Assay type: biochemical
Settings: recombinant human aromatase (baculovirus/insect cell expressed), test compounds 2×10^−5 to 10^−9 M, 37° C. for 30 minutes
Method: Compounds of the invention were evaluated for inhibiting aromatase enzyme using the following aromatase (CYP19) inhibition assay which detects aromatase inhibitors utilizing recombinant human aromatase (baculovirus/insect cell expressed) and the fluorometric substrate dibenzylfluorescein (DBF). Aromatase will metabolize DBF to fluorescein which will give the fluorescent signal. The assay is conducted in 96-well black, Falcon plate (BD Biosciences, Cat. No. 353241) in the total volume of 100 μL per well. 40 μL of the Cofactor/Dilution buffer (1) is added to the plate followed by 10 μL of serially diluted test compounds in duplicates for final concentration of 2×10^−5 to 10^−9 M, or 10 μL of phosphate buffer for positive and background control wells. After 10 minutes of preincubation at 37° C., the reaction is initiated by adding 50 μL of prewarmed Enzyme/Substrate Mix (2) to the test compound wells, and positive control wells (maximum activity of CYP19, which represents 100%). The plate is incubated at 37° C. for 30 minutes. To stop the reaction, 37.5 μL of 2 N NaOH is added to all wells. For background controls, 50 μL of Enzyme/Substrate Mix (2) are added into background control wells. The plate is left at 37° C. incubator for 2 hours to develop adequate signal to background ratio. Fluorescence per well is measured in the fluorescent plate reader. The metabolite concentration is measured using excitation wavelength of 485 nm and emission wavelength of 538 nm. Inhibition of aromatase by test compounds is expressed in percentage relative to positive controls. IC50 values for the test compounds are derived from non-liner curve fitting. • (1) Cofactor/Dilution buffer: 50 mM phosphate buffer, pH=7.4; 1× NADPH regenerating system A (20× stock, GENTEST, Cat. No. 451220); 1× NAPDH regenerating system B (100× stock, GENTEST, Cat. No. 451200) and 0.2 mg/mL control protein (Insect Cell Control Supersomes, GENTEST, Cat. No. 456200) • (2) Enzyme/Substrate Mix: 50 mM phosphate buffer, pH=7.4, 0.02 nmole/mL human aromatase protein (Human CYP19+P450 Reductase Supersomes, GENTEST, Cat. No. 456260); 0.4 μM dibenzylfluorescein (DBF, GENTEST, Cat. No. 451750, prepared at 2 mM concentration in acetonitrile); 0.5 mg/mL control protein (Insect Cell Control Supersomes, GENTEST, Cat. No. 456200).

| aromatase inhibition | Compound |
| --- | --- |
| showed aromatase inhibition | Cc1ccc(F)cc1C(C)(C)CC(O)(Cc1cc2ccncc2[nH]1)C(C)C (centres unmarked) [5-(5-Fluoro-2-methylphenyl)-2,5-dimethyl-3-(1H-pyrrolo[2,3-c]pyridin-2-ylmethyl)hexan-3-ol] |
| showed aromatase inhibition | COc1ccc(F)cc1C(C)(C)CC(O)(Cc1[nH]c2ccncc2c1CN(C)C)C(F)(F)F (centres unmarked) [2-(3-Dimethylaminomethyl-1H-pyrrolo[3,2-c]pyridin-2-ylmethyl)-1,1,1-trifluoro-4-(5-fluoro-2-methoxyphenyl)-4-methylpentan-2-ol] |
